Assay results: patent US9708318B2, “Bicyclic heterocycles as FGFR4 inhibitors” (Incyte Corporation, priority 2015, dated 2017)
Like-named read-outs stand apart in the source and are kept apart here.

Tests used:
FGFR1 = FGFR1 (Homo sapiens (Human), UniProt P11362); test: FGFR Enzymatic Assay (FRET peptide phosphorylation), FGFR1
FGFR4 = FGFR4 (Homo sapiens (Human), UniProt P22455); test: FGFR Enzymatic Assay (FRET peptide phosphorylation), FGFR4; format: biochemical; conditions: for FGFR1/FGFR4 IC50 ratio / FGFR2/FGFR4 IC50 ratio / FGFR3/FGFR4 IC50 ratio: FGFR4 selectivity
Chain of FGFR4 (P22455 22-802): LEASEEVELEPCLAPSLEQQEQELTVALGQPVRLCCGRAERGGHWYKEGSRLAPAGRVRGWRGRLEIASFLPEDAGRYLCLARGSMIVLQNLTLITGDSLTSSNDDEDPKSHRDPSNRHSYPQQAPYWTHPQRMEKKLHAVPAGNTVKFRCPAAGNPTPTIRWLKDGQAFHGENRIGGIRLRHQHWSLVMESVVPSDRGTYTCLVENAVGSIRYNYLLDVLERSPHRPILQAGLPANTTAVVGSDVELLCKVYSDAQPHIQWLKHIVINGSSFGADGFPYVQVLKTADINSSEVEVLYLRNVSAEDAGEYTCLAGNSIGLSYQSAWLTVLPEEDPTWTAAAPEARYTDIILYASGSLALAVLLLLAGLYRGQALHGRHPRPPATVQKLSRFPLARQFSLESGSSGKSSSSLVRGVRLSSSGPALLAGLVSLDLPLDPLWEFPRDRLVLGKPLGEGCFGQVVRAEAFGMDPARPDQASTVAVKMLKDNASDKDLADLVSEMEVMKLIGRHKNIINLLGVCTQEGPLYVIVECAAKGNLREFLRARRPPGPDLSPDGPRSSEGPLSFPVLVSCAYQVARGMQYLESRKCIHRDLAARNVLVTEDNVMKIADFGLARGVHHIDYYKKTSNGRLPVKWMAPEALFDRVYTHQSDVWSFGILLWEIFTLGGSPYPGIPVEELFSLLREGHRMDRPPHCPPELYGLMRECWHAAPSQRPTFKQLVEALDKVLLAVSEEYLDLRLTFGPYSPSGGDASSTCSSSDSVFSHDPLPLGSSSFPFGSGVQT
Experimental: (§1) The inhibitor potency of the exemplified compounds was measured in an enzyme assay that measures peptide phosphorylation using FRET measurements to detect product formation. Inhibitors were serially diluted in DMSO and a volume of 0.5 μL was transferred to the wells of a 384-well plate.
(§2) The enzymes were purchased from Millipore or Invitrogen.
(§3) GraphPad prism3 was used to analyze the data.

FGFR3 enzyme = FGFR3 enzyme (Homo sapiens (Human), UniProt P22607); test: FGFR Enzymatic Assay (FRET peptide phosphorylation), FGFR3; format: biochemical; conditions: for FGFR1/FGFR3 IC50 ratio / FGFR4/FGFR3 IC50 ratio: FGFR3 selectivity; for IC50: read-out: FGFR3 IC50
Chain of FGFR3 enzyme (P22607 23-806): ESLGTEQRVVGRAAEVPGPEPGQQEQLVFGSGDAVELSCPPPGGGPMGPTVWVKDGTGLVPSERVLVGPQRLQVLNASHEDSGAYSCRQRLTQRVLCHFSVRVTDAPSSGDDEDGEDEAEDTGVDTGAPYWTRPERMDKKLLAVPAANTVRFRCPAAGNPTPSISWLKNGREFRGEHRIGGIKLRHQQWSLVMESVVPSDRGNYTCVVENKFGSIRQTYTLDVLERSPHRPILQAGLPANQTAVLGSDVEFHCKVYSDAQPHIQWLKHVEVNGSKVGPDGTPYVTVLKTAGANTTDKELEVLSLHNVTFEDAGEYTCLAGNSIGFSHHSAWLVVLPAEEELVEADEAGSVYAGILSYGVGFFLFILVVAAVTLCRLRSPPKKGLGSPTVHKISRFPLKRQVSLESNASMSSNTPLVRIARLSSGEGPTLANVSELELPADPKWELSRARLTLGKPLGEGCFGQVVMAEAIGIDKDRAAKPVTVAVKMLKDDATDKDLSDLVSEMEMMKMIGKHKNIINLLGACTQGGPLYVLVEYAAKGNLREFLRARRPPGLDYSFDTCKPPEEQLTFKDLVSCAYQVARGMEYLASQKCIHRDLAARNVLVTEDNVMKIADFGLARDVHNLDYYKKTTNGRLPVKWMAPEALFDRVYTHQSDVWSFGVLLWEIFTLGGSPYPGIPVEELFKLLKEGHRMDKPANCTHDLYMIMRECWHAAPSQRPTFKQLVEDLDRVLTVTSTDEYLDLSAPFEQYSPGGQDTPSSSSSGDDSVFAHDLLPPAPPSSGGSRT
Experimental: as §1, §3

FGFR2 = FGFR2 (Homo sapiens (Human), UniProt P21802); test: FGFR Enzymatic Assay (FRET peptide phosphorylation), FGFR2; format: biochemical
Chain of FGFR2 (P21802 22-821): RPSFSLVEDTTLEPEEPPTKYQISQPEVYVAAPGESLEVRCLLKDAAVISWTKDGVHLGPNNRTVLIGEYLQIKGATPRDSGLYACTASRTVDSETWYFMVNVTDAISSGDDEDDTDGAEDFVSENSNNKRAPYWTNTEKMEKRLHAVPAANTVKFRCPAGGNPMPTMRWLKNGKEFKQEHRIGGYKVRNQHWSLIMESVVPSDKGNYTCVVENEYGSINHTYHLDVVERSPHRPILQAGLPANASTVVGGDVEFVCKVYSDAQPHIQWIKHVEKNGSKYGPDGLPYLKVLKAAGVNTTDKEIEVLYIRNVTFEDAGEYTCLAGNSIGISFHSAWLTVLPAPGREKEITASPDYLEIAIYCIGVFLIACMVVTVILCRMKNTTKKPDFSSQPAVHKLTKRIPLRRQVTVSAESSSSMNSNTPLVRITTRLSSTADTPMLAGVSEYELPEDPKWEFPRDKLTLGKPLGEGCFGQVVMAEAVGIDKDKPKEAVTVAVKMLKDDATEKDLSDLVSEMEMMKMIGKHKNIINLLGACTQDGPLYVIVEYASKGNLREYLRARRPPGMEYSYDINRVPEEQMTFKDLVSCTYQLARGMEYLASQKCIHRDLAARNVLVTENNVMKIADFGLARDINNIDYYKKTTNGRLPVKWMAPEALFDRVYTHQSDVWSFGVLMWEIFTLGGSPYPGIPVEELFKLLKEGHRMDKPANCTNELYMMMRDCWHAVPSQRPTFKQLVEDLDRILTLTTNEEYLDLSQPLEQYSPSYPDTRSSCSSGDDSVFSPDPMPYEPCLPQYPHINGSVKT
Experimental: as §1, §2, §3

[1] = FGFR1 IC50 (nM), pre-incubated for 4 hours
[2] = read-out: FGFR1 IC50, pre-incubated for 4 hours
[3] = pre-incubated for 5 to 10 minutes

Chain of FGFR1 (P11362 22-822): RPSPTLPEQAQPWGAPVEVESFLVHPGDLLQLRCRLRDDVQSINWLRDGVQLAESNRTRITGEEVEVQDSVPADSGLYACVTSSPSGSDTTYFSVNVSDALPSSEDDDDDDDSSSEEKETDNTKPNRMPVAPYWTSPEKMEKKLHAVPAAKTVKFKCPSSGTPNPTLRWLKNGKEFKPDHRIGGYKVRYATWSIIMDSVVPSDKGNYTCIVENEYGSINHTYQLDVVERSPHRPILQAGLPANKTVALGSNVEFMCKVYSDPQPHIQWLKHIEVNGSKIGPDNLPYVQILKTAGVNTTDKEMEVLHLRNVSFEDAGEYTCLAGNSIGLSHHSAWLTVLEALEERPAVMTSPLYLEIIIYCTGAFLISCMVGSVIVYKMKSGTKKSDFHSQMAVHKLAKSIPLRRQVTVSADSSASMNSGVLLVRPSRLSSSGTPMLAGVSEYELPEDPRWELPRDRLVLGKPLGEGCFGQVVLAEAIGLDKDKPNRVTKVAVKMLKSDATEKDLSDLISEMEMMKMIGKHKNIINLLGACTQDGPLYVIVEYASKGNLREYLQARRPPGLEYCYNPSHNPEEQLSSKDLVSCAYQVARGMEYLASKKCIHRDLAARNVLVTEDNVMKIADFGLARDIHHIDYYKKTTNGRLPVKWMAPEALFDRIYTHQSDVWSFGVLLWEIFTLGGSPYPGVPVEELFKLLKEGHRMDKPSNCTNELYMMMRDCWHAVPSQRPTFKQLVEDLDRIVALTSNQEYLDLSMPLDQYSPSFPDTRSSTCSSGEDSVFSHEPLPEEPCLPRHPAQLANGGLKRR

| Compound | IC50 (FGFR1; [1]) | IC50 (FGFR4; pre-incubated for 4 hours) | FGFR1/FGFR3 IC50 ratio (FGFR3 enzyme; pre-incubated for 4 hours) | FGFR4/FGFR3 IC50 ratio (FGFR3 enzyme; pre-incubated for 4 hours) | IC50 (FGFR3 enzyme; pre-incubated for 4 hours) | IC50 (FGFR2; pre-incubated for 4 hours) | IC50 (FGFR1; [2]) | FGFR1/FGFR4 IC50 ratio (FGFR4; pre-incubated for 4 hours) | FGFR2/FGFR4 IC50 ratio (FGFR4; pre-incubated for 4 hours) | FGFR3/FGFR4 IC50 ratio (FGFR4; pre-incubated for 4 hours) | IC50 (FGFR1; read-out: FGFR1 IC50, pre-incubated for 5 to 10 minutes) | IC50 (FGFR4; [3]) | IC50 (FGFR3 enzyme; [3]) | IC50 (FGFR2; [3]) | IC50 (FGFR1; FGFR1 IC50 (nM), pre-incubated for 5 to 10 minutes) |
| --- | --- | --- | --- | --- | --- | --- | --- | --- | --- | --- | --- | --- | --- | --- | --- |
| COc1cc(OC)c(F)c(N2Cc3cnc(-c4cn(C5CCN(C)C5)nc4C)cc3C3(CC3)C2=O)c1F (stereo not drawn) [Example 163, 2′-(2,6-difluoro-3,5-dimethoxyphenyl)-6′-(3-methyl-1-(1-methylpyrrolidin-3-yl)-1H-pyrazol-4-yl)-1′H-spiro[cyclopropane-1,4′-[2,7]naphthyridin]-3′(2′H)-one] | 30 to 200 nM | 30 to 200 nM | >3 | >3 | < 10 nM | < 10 nM |  |  |  |  |  |  |  |  |  |
| COc1cc(OC)c(F)c(N2Cc3cnc(-c4cn(CCN(C)C)nc4C)cc3C3(CC3)C2=O)c1F [Example 164, 2′-(2,6-difluoro-3,5-dimethoxyphenyl)-6′-(1-(2-(dimethylamino)ethyl)-3-methyl-1H-pyrazol-4-yl)-1′H-spiro[cyclopropane-1,4′-[2,7]naphthyridin]-3′(2′H)-one] | 30 to 200 nM | 30 to 200 nM | >3 | >3 | 10 to 30 nM | 10 to 30 nM |  |  |  |  |  |  |  |  |  |
| COc1cc(OC)c(F)c(N2Cc3cnc(-c4nn(C)cc4C#N)cc3C3(CC3)C2=O)c1F [Example 172, 3-(2′-(2,6-difluoro-3,5-dimethoxyphenyl)-3′-oxo-2′,3′-dihydro-1′H-spiro[cyclopropane-1,4′-[2,7]naphthyridine]-6′-yl)-1-methyl-1H-pyrazole-4-carbonitrile] |  | 10 to 30 nM |  |  | > 200 nM | > 200 nM | > 200 nM | >50 | >25 | >10 |  |  |  |  |  |
| COc1cc(OC)c(F)c(N2Cc3cnc(-c4nn(CC5CCOCC5)cc4C#N)cc3C3(CC3)C2=O)c1F [Example 173, 3-(2′-(2,6-difluoro-3,5-dimethoxyphenyl)-3′-oxo-2′,3′-dihydro-1′H-spiro[cyclopropane-1,4′-[2,7]naphthyridine]-6′-yl)-1-((tetrahydro-2H-pyran-4-yl)methyl)-1H-pyrazole-4-carbonitrile] |  | 10 to 30 nM |  |  | > 200 nM | > 200 nM | > 200 nM | >100 | >100 | >50 |  |  |  |  |  |
| COc1cc(OC)c(F)c(N2Cc3cnc(-c4nn(CC#N)cc4C#N)cc3C3(CC3)C2=O)c1F [Example 174, 1-(cyanomethyl)-3-(2′-(2,6-difluoro-3,5-dimethoxyphenyl)-3′-oxo-2′,3′-dihydro-1′H-spiro[cyclopropane-1,4′-[2,7]naphthyridine]-6′-yl)-1H-pyrazole-4-carbonitrile] |  | 10 to 30 nM |  |  | > 200 nM | > 200 nM | > 200 nM | >100 | >10 | >25 |  |  |  |  |  |
| CCN1C(=O)N(c2c(F)c(OC)cc(OC)c2F)Cc2cnc(-c3ccc(C(=O)NC4CC4)nc3)cc21 [Example 176, N-cyclopropyl-5-(3-(2,6-difluoro-3,5-dimethoxyphenyl)-1-ethyl-2-oxo-1,2,3,4-tetrahydropyrido[4,3-d]pyrimidin-7-yl)picolinamide] | 10 to 30 nM | 10 to 30 nM | >10 | >5 | < 10 nM | < 10 nM |  |  |  |  |  |  |  |  |  |
| CCN1C(=O)N(c2c(F)c(OC)cc(OC)c2F)Cc2cnc(-c3ccc(C(=O)NCCO)nc3)cc21 [Example 177, 5-(3-(2,6-difluoro-3,5-dimethoxyphenyl)-1-ethyl-2-oxo-1,2,3,4-tetrahydropyrido[4,3-d]pyrimidin-7-yl)-N-(2-hydroxyethyl)picolinamide] | 10 to 30 nM | 10 to 30 nM | >5 | >10 | < 10 nM | < 10 nM |  |  |  |  |  |  |  |  |  |
| CCN1C(=O)N(c2c(F)c(OC)cc(OC)c2F)Cc2cnc(-c3ccc(CC#N)cc3)cc21 [Example 180, 2-(4-(3-(2,6-difluoro-3,5-dimethoxyphenyl)-1-ethyl-2-oxo-1,2,3,4-tetrahydropyrido[4,3-d]pyrimidin-7-yl)phenyl)acetonitrile] | 30 to 200 nM | 10 to 30 nM | >5 | >5 | < 10 nM | < 10 nM |  |  |  |  |  |  |  |  |  |
| CCN1C(=O)N(c2c(F)c(OC)cc(OC)c2F)Cc2cnc(-c3ccc(C4(C#N)CCC4)cc3)cc21 [Example 181, 1-(4-(3-(2,6-difluoro-3,5-dimethoxyphenyl)-1-ethyl-2-oxo-1,2,3,4-tetrahydropyrido[4,3-d]pyrimidin-7-yl)phenyl)cyclobutanecarbonitrile] | 30 to 200 nM | 30 to 200 nM | >5 | >10 | < 10 nM | < 10 nM |  |  |  |  |  |  |  |  |  |
| CCN1C(=O)N(c2c(F)c(OC)cc(OC)c2F)Cc2cnc(-c3ccc(C4(C#N)CC4)cc3)cc21 [Example 183, 1-(4-(3-(2,6-difluoro-3,5-dimethoxyphenyl)-1-ethyl-2-oxo-1,2,3,4-tetrahydropyrido[4,3-d]pyrimidin-7-yl)phenyl)cyclopropanecarbonitrile] | 10 to 30 nM | 30 to 200 nM | >3 | >10 | < 10 nM | < 10 nM |  |  |  |  |  |  |  |  |  |
| CCN1C(=O)N(c2c(F)c(OC)cc(OC)c2F)Cc2cnc(-c3ccc(C(N)=O)nc3)cc21 [Example 184, 5-(3-(2,6-difluoro-3,5-dimethoxyphenyl)-1-ethyl-2-oxo-1,2,3,4-tetrahydropyrido[4,3-d]pyrimidin-7-yl)picolinamide] | 10 to 30 nM | 10 to 30 nM | >5 | >5 | < 10 nM | < 10 nM |  |  |  |  |  |  |  |  |  |
| COc1cc(OC)c(F)c(N2Cc3cnc(-c4ccncc4)cc3C3(CC3)C2=O)c1F [Example 185, 2′-(2,6-difluoro-3,5-dimethoxyphenyl)-6′-(pyridin-4-yl)-1′H-spiro[cyclopropane-1,4′-[2,7]naphthyridin]-3′(2′H)-one] | 10 to 30 nM | 10 to 30 nM | >3 | >3 | < 10 nM | < 10 nM |  |  |  |  |  |  |  |  |  |
| COc1cc(OC)c(F)c(N2Cc3cnc(-c4ccc(C5(C#N)CCC5)nc4)cc3N(Cc3nnc(C)o3)C2=O)c1F [Example 187, 1-(5-{3-(2,6-difluoro-3,5-dimethoxyphenyl)-1-[(5-methyl-1,3,4-oxadiazol-2-yl)methyl]-2-oxo-1,2,3,4-tetrahydropyrido[4,3-d]pyrimidin-7-yl}pyridin-2-yl)cyclobutanecarbonitrile] | 30 to 200 nM | 30 to 200 nM | >10 | >10 | < 10 nM | < 10 nM |  |  |  |  |  | 30 to 200 nM | < 10 nM | < 10 nM | 10 to 30 nM |

Now from value to molecule:

| IC50 (FGFR1; [1]) | IC50 (FGFR4; pre-incubated for 4 hours) | FGFR1/FGFR3 IC50 ratio (FGFR3 enzyme; pre-incubated for 4 hours) | FGFR4/FGFR3 IC50 ratio (FGFR3 enzyme; pre-incubated for 4 hours) | IC50 (FGFR3 enzyme; pre-incubated for 4 hours) | IC50 (FGFR2; pre-incubated for 4 hours) | IC50 (FGFR1; [2]) | FGFR1/FGFR4 IC50 ratio (FGFR4; pre-incubated for 4 hours) | FGFR2/FGFR4 IC50 ratio (FGFR4; pre-incubated for 4 hours) | FGFR3/FGFR4 IC50 ratio (FGFR4; pre-incubated for 4 hours) | IC50 (FGFR1; read-out: FGFR1 IC50, pre-incubated for 5 to 10 minutes) | IC50 (FGFR4; [3]) | IC50 (FGFR3 enzyme; [3]) | IC50 (FGFR2; [3]) | IC50 (FGFR1; FGFR1 IC50 (nM), pre-incubated for 5 to 10 minutes) | Compound |
| --- | --- | --- | --- | --- | --- | --- | --- | --- | --- | --- | --- | --- | --- | --- | --- |
| 10 to 30 nM | 10 to 30 nM | >3 | >3 | < 10 nM | < 10 nM |  |  |  |  |  |  |  |  |  | COc1cc(OC)c(F)c(N2Cc3cnc(-c4cn(CCC5CCNCC5)nc4C)cc3C3(CC3)C2=O)c1F [Example 165, 2′-(2,6-difluoro-3,5-dimethoxyphenyl)-6′-(3-methyl-1-(2-(piperidin-4-yl)ethyl)-1H-pyrazol-4-yl)-1′H-spiro[cyclopropane-1,4′-[2,7]naphthyridin]-3′(2′H)-one] |
| 10 to 30 nM | 10 to 30 nM | >3 | >3 | < 10 nM | < 10 nM |  |  |  |  |  |  |  |  |  | COc1cc(OC)c(F)c(N2Cc3cnc(-c4cnn(CC5CN(S(C)(=O)=O)C5)c4)cc3C3(CC3)C2=O)c1F [Example 166, 2′-(2,6-difluoro-3,5-dimethoxyphenyl)-6′-(1-((1-(methylsulfonyl)azetidin-3-yl)methyl)-1H-pyrazol-4-yl)-1′H-spiro[cyclopropane-1,4′-[2,7]naphthyridin]-3′(2′H)-one] |
|  | 10 to 30 nM | >3 | >3 | < 10 nM | < 10 nM | < 10 nM |  |  |  |  |  |  |  |  | COc1cc(OC)c(F)c(N2Cc3cnc(-c4cnn(CC5CN(C(C)=O)C5)c4)cc3C3(CC3)C2=O)c1F [Example 167, 6′-(1-((1-acetylazetidin-3-yl)methyl)-1H-pyrazol-4-yl)-2′-(2,6-difluoro-3,5-dimethoxyphenyl)-1′H-spiro[cyclopropane-1,4′-[2,7]naphthyridin]-3′(2′H)-one] |
| 30 to 200 nM | < 10 nM |  |  | 30 to 200 nM | 30 to 200 nM |  | >10 | >10 | >10 |  |  |  |  |  | COc1cc(OC)c(F)c(N2Cc3cnc(-c4[nH]ncc4C#N)cc3C3(CC3)C2=O)c1F [Example 171, 5-(2′-(2,6-difluoro-3,5-dimethoxyphenyl)-3′-oxo-2′,3′-dihydro-1′H-spiro[cyclopropane-1,4′-[2,7]naphthyridine]-6′-yl)-1H-pyrazole-4-carbonitrile] |
|  | < 10 nM | >5 | >5 | < 10 nM | < 10 nM | < 10 nM |  |  |  | < 10 nM | < 10 nM | < 10 nM | < 10 nM |  | COc1cc(OC)c(F)c(N2Cc3cnc(-c4cnn(C)c4)cc3C3(CC3)C2=O)c1F [Example 186, 2′-(2,6-difluoro-3,5-dimethoxyphenyl)-6′-(1-methyl-1H-pyrazol-4-yl)-1′,2′-dihydro-3′H-spiro[cyclopropane-1,4′-[2,7]naphthyridin]-3′-one] |
